By IC50 is commonly meant the concentration needed to halve the response being measured.

Data set [1] concerns the target T1, Angiotensin I-converting enzyme (ACE) from rabbit lungs (Oryctolagus cuniculus, UniProt P12822).
T1 construct: Angiotensin I-converting enzyme (ACE) from rabbit lungs (0.1 U); purchased Sigma-Aldrich (St. Louis, MO, USA); host or cells: rabbit lung tissue
T1 sequence (P12822 34-1310): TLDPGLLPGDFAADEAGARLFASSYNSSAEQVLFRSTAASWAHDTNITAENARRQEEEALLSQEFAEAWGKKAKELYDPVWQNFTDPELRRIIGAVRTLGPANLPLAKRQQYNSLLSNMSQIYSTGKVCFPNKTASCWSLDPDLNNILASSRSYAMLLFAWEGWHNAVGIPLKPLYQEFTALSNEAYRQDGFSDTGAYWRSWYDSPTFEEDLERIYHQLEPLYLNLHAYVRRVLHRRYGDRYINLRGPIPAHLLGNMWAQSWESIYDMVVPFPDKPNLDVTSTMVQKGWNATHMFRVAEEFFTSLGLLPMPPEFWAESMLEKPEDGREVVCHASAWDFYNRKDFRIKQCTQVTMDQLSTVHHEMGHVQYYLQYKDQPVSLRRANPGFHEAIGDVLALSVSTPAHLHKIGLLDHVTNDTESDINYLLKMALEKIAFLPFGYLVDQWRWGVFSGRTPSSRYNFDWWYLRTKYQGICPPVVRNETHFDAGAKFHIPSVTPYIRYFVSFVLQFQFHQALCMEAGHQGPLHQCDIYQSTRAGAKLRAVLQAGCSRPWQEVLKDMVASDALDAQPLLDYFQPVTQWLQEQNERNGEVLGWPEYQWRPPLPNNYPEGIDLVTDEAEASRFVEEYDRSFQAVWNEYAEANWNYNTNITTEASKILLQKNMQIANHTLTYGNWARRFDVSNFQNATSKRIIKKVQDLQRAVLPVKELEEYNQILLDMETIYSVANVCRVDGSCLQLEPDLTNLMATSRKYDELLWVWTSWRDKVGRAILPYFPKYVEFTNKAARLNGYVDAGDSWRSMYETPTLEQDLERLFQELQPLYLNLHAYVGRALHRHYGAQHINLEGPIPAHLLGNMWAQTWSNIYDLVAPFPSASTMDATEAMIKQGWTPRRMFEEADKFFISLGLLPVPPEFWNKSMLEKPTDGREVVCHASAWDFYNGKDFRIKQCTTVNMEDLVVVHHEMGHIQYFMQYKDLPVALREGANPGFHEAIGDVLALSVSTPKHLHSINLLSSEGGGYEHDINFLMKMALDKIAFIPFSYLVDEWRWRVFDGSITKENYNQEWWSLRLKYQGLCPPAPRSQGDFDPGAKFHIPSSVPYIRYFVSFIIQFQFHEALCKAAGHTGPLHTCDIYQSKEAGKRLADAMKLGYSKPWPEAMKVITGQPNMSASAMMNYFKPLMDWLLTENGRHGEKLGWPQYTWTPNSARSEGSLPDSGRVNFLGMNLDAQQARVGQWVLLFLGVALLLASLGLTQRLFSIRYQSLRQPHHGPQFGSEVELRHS
The experiment in a line: ACE inhibitory activity (HHL substrate, HPLC of hippuric acid). Type of data set: biochemical. An excerpt:
Camellia seeds were purchased from Quzhou City, Zhejiang Province. Angiotensin I-converting enzyme (ACE) from rabbit lungs (0.1 U) (Table A1), ACE substrate hippuryl-histidyl-leucine (HHL) and hippuric acid (HA) standards were purchased from Sigma-Aldrich (St. Louis, MO, USA). Neutral protease (50,000 U/g), alkaline protease (200,000 U/g), papain (800,000 U/g), trypsin (250,000 U/g), and Sephadex G-25 were purchased from Beijing Solarbio Science & Technology Co., Ltd. (Beijing, China). All other chemicals used were of analytical grade.
The ACE inhibition rate was determined using High-Performance Liquid Chromatography (HPLC). In summary, 60 μL of HHL (2.5 mM) and 20 μL of samples were mixed and incubated at 37 °C for 5 min before 40 μL of ACE (0.05 U/mL) was added. The mixture was incubated at 37 °C for 1 h. Finally, the reaction was terminated by adding 120 μL of HCl solution (1 mol/L). The content of HA in the reaction system was detected by a PITC pre-column derivatization HPLC (Shimadzu LC-20AT) with a column C18 Hypersil ODS2 (4.6 mm×250 mm, 5 μm) at 228 nm. Isocratic elution was processed with the acetonitrile-water (volume ratio 1:3, each containing 0.1% TFA) solution at a constant flow rate of 1 mL/min. […]

Data set [2] deals with T1, Angiotensin I-converting enzyme (ACE) from rabbit lungs. The experiment in a line: Stability after in vitro treatment with digestive enzymes (pepsin, trypsin). It counts as in vitro ADME. To be noted: 0.4 mg/mL, 2 h, read-out ACE inhibition rate, n = 3. How it is done: The ACE inhibition rate was determined using High-Performance Liquid Chromatography (HPLC). In summary, 60 μL of HHL (2.5 mM) and 20 μL of samples were mixed and incubated at 37 °C for 5 min before 40 μL of ACE (0.05 U/mL) was added. The mixture was incubated at 37 °C for 1 h. Finally, the reaction was terminated by adding 120 μL of HCl solution (1 mol/L). The content of HA in the reaction system was detected by a PITC pre-column derivatization HPLC (Shimadzu LC-20AT) with a column C18 Hypersil ODS2 (4.6 mm×250 mm, 5 μm) at 228 nm. Isocratic elution was processed with the acetonitrile-water (volume ratio 1:3, each containing 0.1% TFA) solution at a constant flow rate of 1 mL/min. The ACE inhibition rate (%) was calculated based on the following formula:ACE inhibition rate (%) = [(A0 − A1) / A0] × 100%(4) where A0 and A1 equal the HA peak areas of the blank control and sample, respectively.
The stability of VVVPQN after in vitro treatment with digestive enzymes was carried out by the method of Chai with some modifications. Briefly, in a water bath at 37 °C, VVVPQN (0.4 mg/mL) was first digested with 2% (w/w) pepsin at pH 2.0 for 2 h. The pH was then adjusted to 7.0 before trypsin was added at a 1:50 enzyme to substrate ratio. […] The stability of VVVPQN was evaluated by comparing the ACE inhibition rate before and after the digestion.

Peptide text beside a SMILES is read from it.

On to `CC(C)[C@H](N)C(=O)N[C@H](C(=O)N[C@H](C(=O)N1CCC[C@H]1C(=O)N[C@@H](CCC(N)=O)C(=O)N[C@@H](CC(N)=O)C(=O)O)C(C)C)C(C)C` [VVVPQN, Val-Val-Val-Pro-Gln-Asn] (H-VVVPQN-OH), for which the IC50 in data set [1] (from regression equation y = 23.595 ln(x) + 98.175) was 199 µM. The same compound returned an ACE inhibitory activity in data set [1] (synthetic peptide 0.5 mg/mL, HHL 2.5 mM, ACE 0.05 U/mL, 37 °C 1 h, HPLC 228 nm, mean, n = 3) of 80.46%. Besides, the “Change of ACE inhibitory activity after simulated gastric digestion” value in data set [2] (2% (w/w) pepsin, pH 2.0, 37 °C) is on record as “decreased significantly”. The “Change of ACE inhibitory activity after further simulated intestinal digestion” value in data set [2] (after pepsin: trypsin 1:50 enzyme to substrate, pH 7.0, 37 °C) is “did not change significantly”.

Values taken from PMC9914026, “Identification of a Novel ACE Inhibitory Hexapeptide from Camellia Seed Cake and Evaluation of Its Stability” (Foods, 2023).
